From patent US6800618B2, “Chemosensitizing agents against chloroquine resistant plasmodium falciparum and methods of making and using thereof” (The United States of America as represented by the …, priority 2001, dated 2004)

How the values were obtained:
[1] = test system: TM91C235 cells; assay: In vitro reversal activity (cell growth suppression, 3H-hypoxanthine incorporation) in TM91C235 cells; assay type: cell-based, Plasmodium falciparum; details: for Control % sup: test compounds only
Description: For quantitative in vitro drug susceptibility testing, two well characterized P. falciparum clones, W2 and D6, were used. See Oduola et al. (1988) Exp Parasitol 66:86-95, which is herein incorporated by reference. W2 is a clone of the Indochina I isolate and is resistant to chloroquine and pyrimethamine, but susceptible to mefloquine. D6 is a clone from the Sierra I/UNC isolate and is susceptible to chloroquine and pyrimethamine, but has reduced susceptibilities to mefloquine and halofantrine. TM91C235 was isolates from Thailand and is highly resistant to mefloquine, chloroquine, and quinine.
The in vitro antimalarial drug susceptibility assay used is a modification of the procedures first published by Desjardins, et al. with modifications developed by Milhous, et al. See Desjardins, R. E., et al. (1979) Antimicrobial Agents Chemother 16:710-718; and Milhous, et al. (1985) Antimicrobial Agents Chemother 27:525-530, which are herein incorporated by reference. In brief, the assay is based on the incorporation of radiolabeled hypoxanthine by the parasites and inhibition of isotope incorporation is attributed to activity of known or candidate antimalarial drugs. For each assay, proven antimalarials, such as chloroquine, mefloquine, quinine, artemisinin, pyrimethamine and sulfadoxine, were used as controls. The incubation period was 66 hours and the starting parasitemia was 0.2% with a 1% hematocrit. The media used was RPMI-1640 culture media with no folate or p-aminobenzoic acid (PABA). Albumax may be used instead of 10% normal heat inactivated human plasma.
If a candidate compound was tested without any prior knowledge of its activity or solubility, the compound was dissolved directly in dimethylsulfoxide (DMSO) and diluted 400 fold with complete culture media. These unknown compounds were normally started at a highest concentration of about 50,000 ng/ml. The compounds were then diluted 2-fold, 11 times, to give a concentration range of about 1,048-fold. These dilutions were performed automatically by a Biomek 1000 or 2000 Liquid Handling System into 96-well microtiter plates.
(§1) 25 μl of each diluted candidate compound was then transferred to test plates, 200 μl of parasitized erythrocytes (0.2% parasitemia and 1% hematocrit) were added, and incubated at 37° C. in a controlled environment of 5% CO2, 5% O2 and 90% N2. After 42 hours, 25 μl of ^3H-hypoxanthine was added and the plates were incubated for an additional 24 hours. At the end of the 66 hour incubation period, the plates were frozen at −70° C. to lyse the red cells and later thawed and harvested onto glass fiber filter mats by using a 96-well cell harvester. The filter mats were then counted in a scintillation counter and the data was analyzed.
Each of these test compounds were tested under three different concentrations, 5000, 500, and 50 ng/ml, in the presence of 10 ng/ml of chloroquine and 5 ng/ml of mefloquine. […] Thus, the compounds of the present invention may be used to treat, prevent or inhibit drug resistant malaria.

[2] = test system: Plasmodium falciparum W2 clone; assay: FIC index with chloroquine (isobologram analysis) in W2 clone; assay type: cell-based; parameters: key: 1.0 = additive; <1.0 = synergy; >1.0 = antagonism; details: 1:1 combination of drug and chloroquine; chloroquine-resistant W2 clone
Protocol: In brief, the assay is based on the incorporation of radiolabeled hypoxanthine by the parasites and inhibition of isotope incorporation is attributed to activity of known or candidate antimalarial drugs. For each assay, proven antimalarials, such as chloroquine, mefloquine, quinine, artemisinin, pyrimethamine and sulfadoxine, were used as controls. The incubation period was 66 hours and the starting parasitemia was 0.2% with a 1% hematocrit. […] Albumax may be used instead of 10% normal heat inactivated human plasma.
as §1
(§2) The FIC is the actual IC50 of one compound in the presence of a second compound but is expressed as a fraction of its IC50 when used alone. This index is a mathematical representation of the isobologram such that an FIC index of 1.0 represents the line of additive on the isobologram. An FIC index of less than 1.0 represents synergy or potentiation and an FIC index of greater than 1.0 represents antagonism.
In the isobologram graphs as shown in FIGS. 1-3, the x-axis is fractional inhibitory concentration (FIC) of chloroquine and the y-axis is FIC of chemosensitizing agent. The FIC is the actual IC50 of one drug in the presence of the second drug but is expressed as a fraction of its IC50 when used alone. If the isobologram graph is a straight line, it represents an additive effect of the two drugs. If the graph forms a concave curve below the line, it indicates synergy or potentiation of the combination. Below the line means synergy or potentiation and above the line means antagonism.

[3] = test system: TM91C235; assay: FIC index in TM91C235 isolate; assay type: cell-based, Plasmodium falciparum; parameters: key: 1.0 = additive; <1.0 = synergy; >1.0 = antagonism; details: isolate from Southeast Asia (Thailand); same method as for W-2
Protocol: as §2, with “Fifty percent inhibitory concentrations (IC50s) were determined for each candidate compound alone and for candidate compounds in fixed combinations of their respective IC50s (1:1, 1:3, 3:1). […] The” for “The”
The same assay method described above for W-2 was used except that the strains used were isolated from Thailand, Brazil, and Peru, respectively.

[4] = test system: RCS; assay: FIC index in RCS isolate; assay type: cell-based, Plasmodium falciparum; parameters: key: 1.0 = additive; <1.0 synergy; >1.0 antagonism; details: isolate from Brazil; same method as for W-2
Protocol: (§3) Fifty percent inhibitory concentrations (IC50s) were determined for each candidate compound alone and for candidate compounds in fixed combinations of their respective IC50s (1:1, 1:3, 3:1). […] See Elion, G. V., et al. (1954) J Biol Chem 208:477-488, which is herein incorporated by reference. The FIC is the actual IC50 of one compound in the presence of a second compound but is expressed as a fraction of its IC50 when used alone. This index is a mathematical representation of the isobologram such that an FIC index of 1.0 represents the line of additive on the isobologram. An FIC index of less than 1.0 represents synergy or potentiation and an FIC index of greater than 1.0 represents antagonism.
(§4) Parasites from different regions responded differently to the compounds of the present invention. The same assay method described above for W-2 was used except that the strains used were isolated from Thailand, Brazil, and Peru, respectively.

[5] = test system: Peruvian PC49; assay: FIC index in Peruvian PC49 isolate; assay type: cell-based, Plasmodium falciparum; parameters: key: 1.0 = additive; <1.0 synergy; >1.0 antagonism; details: isolate from South America (Peru); same method as for W-2
Protocol: as §3, §4

[6] = test compound 50 ng/ml combined with 5 ng/ml mefloquine
[7] = test compound 500 ng/ml combined with 5 ng/ml mefloquine
[8] = test compound 500 ng/ml combined with 10 ng/ml chloroquine
[9] = test compound 5000 ng/ml combined with 5 ng/ml mefloquine
[10] = test compound 5000 ng/ml combined with 10 ng/ml chloroquine

SMILES	Mefloquine % SUP [1, 6] [%]	Chloroquine % sup ([1]; test compound 50 ng/ml combined with 10 ng/ml chloroquine) [%]	Mefloquine % SUP [1, 7] [%]	Chloroquine % sup [1, 8] [%]	Mefloquine % SUP [1, 9] [%]	Chloroquine % sup [1, 10] [%]	Control % sup ([1]; 50 ng/ml) [%]	Control % sup ([1]; 500 ng/ml) [%]	Control % sup ([1]; 5000 ng/ml) [%]	FIC (fractional inhibitory concentration) index [2]	FIC index TM91C235 [3]	FIC index RCS [4]	FIC index Peruvian PC49 [5]
CCN(CC)CCCCN1c2ccccc2Sc2ccccc21 [7b, 10-(4-Diethylaminobutyl)phenothiazine]	17	31	30	99	100	100	26	38	100	0.23	0.29	0.41	0.41
CN(C)CCCCN1c2ccccc2CCc2ccccc21 [7i, 5-(4-Dimethylaminobutyl)iminodibenzyl]	43	–	70	99	95	100	59	73	96	0.23	0.26	0.52	0.62
c1ccc2c(c1)CCc1ccccc1N2CCCCN1CCOCC1 [7o, 5-(4-Morpholin-4-yl-butyl)iminodibenzyl]	–	–	–	–	–	–	–	–	–	0.31	0.54	0.89	0.78
c1ccc2c(c1)Sc1ccccc1N2CCCCN1CCOCC1 [7g, 10-(4-Morpholin-4-yl-butyl)phenothiazine]	–	–	–	–	–	–	–	–	–	0.39	0.32	0.37	0.81
c1ccc2c(c1)Sc1ccccc1N2CCCCN1CCCC1 [compound 7e, 10-(4-Pyrrolidin-1-yl-butyl)phenothiazine]	33	–	67	99	95	100	38	70	96	0.21	0.25	0.51	0.5
c1ccc2c(c1)Sc1ccccc1N2CCCCN1CCCCC1 [7f, 10-(4-Piperidin-1-yl-butyl)phenothiazine]	–	–	–	–	–	–	–	–	–	0.49	0.52	0.68	0.83
CCN(CC)CCCCN1c2ccccc2CCc2ccccc21 [7j, 5-(4-Diethylaminobutyl)iminodibenzyl]	64	–	95	100	100	100	62	95	100	0.39	0.41	0.57	0.57
c1ccc2c(c1)CCc1ccccc1N2CCCCCCN1CCCC1 [7x, 5-(6-Pyrrolidin-1-yl-hexyl)iminodibenzyl]	–	–	–	–	–	–	–	–	–	0.57	0.54	0.60	0.92
c1ccc2c(c1)CCc1ccccc1N2CCCCN1CCCC1 [compound 7m, 5-(4-Pyrrolidin-1-yl-butyl)iminodibenzyl]	64	–	96	100	100	100	58	98	100	0.32	0.42	0.51	0.66
c1ccc2c(c1)CCc1ccccc1N2CCCCCN1CCCC1 [7v, 5-(5-Pyrrolidin-1-yl-pentyl)iminodibenzyl]	–	–	–	–	–	–	–	–	–	0.48	0.55	0.37	0.59
